Drawing on US20140350050A1, “PYRIDINE COMPOUNDS AS INHIBITORS OF KINASE” (TELIGENE LTD., priority 2011, published 2014), this text covers IC50 for 1 compound.

What is called IC50 is the concentration needed to halve the response being measured.

Read-outs that look alike come from different tables or passages of the source.

For this test, the target named is ALK kinase (Homo sapiens, UniProt Q9UM73). Put plainly: ALK kinase assay. In kind it is biochemical. On the procedure: An in vitro assay which determines the ability of a test compound to inhibit ALK kinase. a) kinase-tagged T7 phage strains were prepared in an E. coli host derived from the BL21 strain. E. coli were grown to log-phase and infected with T7 phage and incubated with shaking at 32° C. until lysis. The lysates were centrifuged and filtered to remove cell debris. The remaining kinases were produced in HEK-293 cells and subsequently tagged with DNA for qPCR detection. […] The liganded beads were blocked with excess biotin and washed with blocking buffer (SeaBlock (Pierce), 1% BSA, 0.05% Tween 20, 1 mM DTT) to remove unbound ligand and to reduce non-specific binding. […] All reactions were performed in polystyrene 96-well plates in a final volume of 0.135 ml. […] The kinase concentration in the eluates was measured by qPCR. […]
Sequence of ALK kinase (Q9UM73 19-1620): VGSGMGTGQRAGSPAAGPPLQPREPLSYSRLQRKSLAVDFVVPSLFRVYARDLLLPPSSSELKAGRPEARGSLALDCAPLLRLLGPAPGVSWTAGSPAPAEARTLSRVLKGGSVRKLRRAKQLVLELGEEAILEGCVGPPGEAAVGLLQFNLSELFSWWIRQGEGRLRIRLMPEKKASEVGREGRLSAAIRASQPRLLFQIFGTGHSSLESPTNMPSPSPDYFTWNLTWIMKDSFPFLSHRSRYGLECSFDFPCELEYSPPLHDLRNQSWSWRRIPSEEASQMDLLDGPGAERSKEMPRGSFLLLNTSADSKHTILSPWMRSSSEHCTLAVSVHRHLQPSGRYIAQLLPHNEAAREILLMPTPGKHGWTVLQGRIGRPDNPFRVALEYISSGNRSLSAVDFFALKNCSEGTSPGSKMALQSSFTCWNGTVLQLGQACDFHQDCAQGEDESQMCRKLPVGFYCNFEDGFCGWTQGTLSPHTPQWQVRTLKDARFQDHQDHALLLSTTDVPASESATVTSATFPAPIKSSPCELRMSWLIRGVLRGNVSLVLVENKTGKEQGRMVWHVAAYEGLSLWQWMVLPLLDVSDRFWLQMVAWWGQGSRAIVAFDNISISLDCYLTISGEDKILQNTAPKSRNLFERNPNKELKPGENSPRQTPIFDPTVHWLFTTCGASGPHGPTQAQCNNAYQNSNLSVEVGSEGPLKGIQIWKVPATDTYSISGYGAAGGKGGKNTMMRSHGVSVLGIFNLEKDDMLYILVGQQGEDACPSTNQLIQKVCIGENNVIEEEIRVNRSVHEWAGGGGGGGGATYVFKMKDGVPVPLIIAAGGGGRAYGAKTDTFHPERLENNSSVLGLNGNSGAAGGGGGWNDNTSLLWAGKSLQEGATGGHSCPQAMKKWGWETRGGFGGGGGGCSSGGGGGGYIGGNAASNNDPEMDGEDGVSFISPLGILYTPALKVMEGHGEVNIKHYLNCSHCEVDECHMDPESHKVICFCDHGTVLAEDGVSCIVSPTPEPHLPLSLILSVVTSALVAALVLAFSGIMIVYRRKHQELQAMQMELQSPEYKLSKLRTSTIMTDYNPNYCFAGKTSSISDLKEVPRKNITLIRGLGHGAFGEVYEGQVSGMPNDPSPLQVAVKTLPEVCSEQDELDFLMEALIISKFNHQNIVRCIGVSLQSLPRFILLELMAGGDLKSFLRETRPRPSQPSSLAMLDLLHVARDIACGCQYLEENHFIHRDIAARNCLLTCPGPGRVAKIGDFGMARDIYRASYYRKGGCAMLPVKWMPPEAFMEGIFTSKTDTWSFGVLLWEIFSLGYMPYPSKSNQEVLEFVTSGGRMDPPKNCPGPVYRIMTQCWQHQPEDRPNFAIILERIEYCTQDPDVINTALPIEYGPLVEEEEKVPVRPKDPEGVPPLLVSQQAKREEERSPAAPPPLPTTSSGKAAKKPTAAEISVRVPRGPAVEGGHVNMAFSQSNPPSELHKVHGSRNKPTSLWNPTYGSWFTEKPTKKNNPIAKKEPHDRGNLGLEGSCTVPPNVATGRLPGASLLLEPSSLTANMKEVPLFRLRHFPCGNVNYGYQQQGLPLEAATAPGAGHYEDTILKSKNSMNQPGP
b) An alternative method to conduct the kinase assay with the following condition and procedure: Reagent: Base Reaction buffer; 20 mM Hepes (pH 7.5), 10 mM MgCl2, 1 mM EGTA, 0.02% Brij35, 0.02 mg/ml BSA, 0.1 mM Na3VO4, 2 mM DTT, 1% DMSO.
1. Preparing indicated substrate in freshly prepared Base Reaction Buffer
2. Delivering any required cofactors to the substrate solution above
3. Delivering indicated kinase into the substrate solution and gently mix
4. Delivering compounds in DMSO into the kinase reaction mixture
5. Delivering ^33P-ATP (specific activity 0.01 μCi/μl final) into the reaction mixture to initiate the reaction.
6. Incubating kinase reaction for 120 min. at room temperature
7. Reactions are spotted onto P81 ion exchange paper (Whatman #3698-915)
8. Washing filters extensively in 0.75% Phosphoric acid. […]
c) An alternative method to conduct the kinase assay with the following condition and procedure: The assay was performed using Kinase-Glo Plus luminescence kinase assay kit (Promega). It measures kinase activity by quantitating the amount of ATP remaining in solution following a kinase reaction. The luminescent signal from the assay is correlated with the amount of ATP present and is inversely correlated with the amount of kinase activity.
The compound were diluted in 10% DMSO and 5 μl of the dilution was added to a 50 μl reaction so that the final concentration of DMSO is 1% in all of reactions. All of the enzymatic reactions were conducted at 30° C. for 40 minutes. The 50 μl reaction mixture contains 40 mM Tris, pH 7.4, 10 mM MgCl2, 0.1 mg/ml BSA, 1 mM DTT, 0.2 mg/ml substrate peptide, 10 μM ATP and ALK (Table 2.3.1). After the enzymatic reaction, 50 μl of Kinase-Glo Plus Luminescence kinase assay solution (Promega) was added to each reaction and incubate the plate for 5 minutes at room temperature. Luminescence signal was measured using a BioTek Synergy 2 microplate reader. ALK activity assays were performed in duplicate at each concentration. The luminescence data were analyzed using the computer software, Graphpad Prism. The difference between luminescence intensities in the absence of ALK (Lut) and in the presence of ALK (Luc) was defined as 100% activity (Lut−Luc). Using luminescence signal (Lu) in the presence of the compound, % activity was calculated as % activity={(Lut−Lu)/(Lut−Luc)}×100%, where Lu=the luminescence intensity in the presence of the compound (all percent activities below zero were shown zero in the table). The values of % activity versus a series of compound concentrations were then plotted using non-linear regression analysis of Sigmoidal dose-response curve generated with the equation Y=B+(T−B)/1+10^((Log EC50−X)×Hill Slope), where Y=percent activity, B=minimum percent activity, T=maximum percent activity, X=logarithm of compound and Hill Slope=slope factor or Hill coefficient. The IC50 value was determined by the concentration causing a half-maximal percent activity.

For the compound `[2H]C([2H])([2H])C([2H])([2H])N1CCC(n2cc(-c3cnc(N)c(O[C@H](C)c4c(Cl)ccc(F)c4Cl)c3)cn2)CC1` [Compound 22, (R)-3-(1-(2,6-dichloro-3-fluorophenyl)ethoxy)-5-(1-(1-d5-ethylpiperidin-4-yl)-1H-pyrazol-4-yl)pyridin-2-amine], the IC50 reads like this: (ALK kinase assay, read-out: ALK (IC50 grading)) not above 100 nM; (read-out: IC50 in the ALK kinase assay) 1.35 nM.
